Data published in PMC10226132, “First-in-Class Selective Inhibitors of the Lysine Acetyltransferase KAT8” (Journal of Medicinal Chemistry, 2023).

Assays:
Format in all cases: biochemical
KDAC1 = KDAC1 (Homo sapiens, UniProt Q13547); assay: KDAC inhibition assay, KDAC1; settings: mean of three technical replicates
Method: (§1) KDAC1, 2, 3 6, and 8 inhibition assays were performed as described previously.[52] Briefly, the relevant human recombinant KDAC was diluted in an assay buffer with the following composition: 150 mM NaCl, 25 mM Tris–HCl (pH 8.0), 2.7 mM KCl, and 1 mM MgCl2; BSA (0.1 mg/mL) was also added in the case of KDAC1. Forty microliters of this solution were added to 10 μL of each inhibitor ([…]) and 50 μL of KDAC Assay substrate (Boc-Lys-(Ac)-AMC, 7–100 μM final concentration, depending on the KDAC isoform), and the resulting solution was mixed. […] After thorough mixing of the resulting solution, the plate was covered and incubated at 37 °C for 25 min and the fluorescence (λemission = 460 nm; λexcitation = 390 nm) was measured on a EnSight Multimode Plate Reader (Perkin Elmer). The shown values are average of three technical replicates ± SD.

KDAC8 = target: T1, KDAC8 (Homo sapiens, UniProt Q9BY41); assay: KDAC inhibition assay, KDAC8; settings: mean of three technical replicates
T1 sequence (Q9BY41 1-377): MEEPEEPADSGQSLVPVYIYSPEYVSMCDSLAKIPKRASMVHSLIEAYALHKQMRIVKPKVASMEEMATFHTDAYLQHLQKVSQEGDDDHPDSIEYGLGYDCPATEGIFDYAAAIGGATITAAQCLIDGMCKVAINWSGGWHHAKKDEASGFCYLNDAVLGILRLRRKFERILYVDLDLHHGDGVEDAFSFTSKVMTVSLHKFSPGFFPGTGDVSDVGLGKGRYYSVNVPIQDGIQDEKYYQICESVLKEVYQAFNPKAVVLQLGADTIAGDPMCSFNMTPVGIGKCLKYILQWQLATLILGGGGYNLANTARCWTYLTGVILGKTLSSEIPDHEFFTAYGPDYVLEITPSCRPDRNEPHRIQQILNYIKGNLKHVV
Method: as §1

KAT5 = target: T2, KAT5 (Homo sapiens, UniProt Q92993); assay: HotSpot KAT assay, KAT5; settings: for inhibition at 200 µM: read-out: % inhibition at 200 μM KAT5 (25 nM), NI = no inhibition
T2 construct: full length human KAT5 (25 nM) and KAT7 (25 nM) were used; purchased Reaction Biology Corporation
T2 sequence (Q92993 whole entry): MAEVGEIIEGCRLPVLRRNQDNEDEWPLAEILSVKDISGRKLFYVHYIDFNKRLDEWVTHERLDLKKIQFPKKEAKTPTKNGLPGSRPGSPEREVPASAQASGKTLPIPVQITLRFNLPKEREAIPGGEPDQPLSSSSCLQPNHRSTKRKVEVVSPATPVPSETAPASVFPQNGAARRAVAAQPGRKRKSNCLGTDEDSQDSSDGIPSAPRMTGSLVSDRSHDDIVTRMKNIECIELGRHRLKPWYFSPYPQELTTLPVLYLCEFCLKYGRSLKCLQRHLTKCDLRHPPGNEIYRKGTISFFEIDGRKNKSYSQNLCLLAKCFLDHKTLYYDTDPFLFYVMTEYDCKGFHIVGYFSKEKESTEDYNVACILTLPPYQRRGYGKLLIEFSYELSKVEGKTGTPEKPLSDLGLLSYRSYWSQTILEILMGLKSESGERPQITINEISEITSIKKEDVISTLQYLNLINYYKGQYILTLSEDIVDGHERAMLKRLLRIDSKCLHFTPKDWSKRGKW
Method: The effects of the compounds on other KATs were determined using the HotSpot KAT assay (Reaction Biology Corporation, Malvern, PA, USA) according to the supplier’s procedure. The recombinant catalytic domains of human KAT2A (aa 323–837, 15 nM), KAT2B (aa 492–658, 25 nM), KAT3B (aa 1284–1672, 1 nM), KAT6A (aa 488–778, 10 nM), KAT6B (aa 657–1069, 10 nM), and full length human KAT5 (25 nM) and KAT7 (25 nM) were used. Each enzyme was incubated with the relevant histone peptide [H3 peptide for KAT2A, KAT2B, KAT3B, KAT6A, and KAT7 (2.5–5 μM, depending on the KAT isoform); H2A peptide for KAT5 (1.25 μM); H4 peptide for KAT6B (2.5 μM)] as a substrate and radio-isotope-labeled [^3H]Acetyl-CoA (0.2–1.5 μM, depending on the KAT isoform) as an acetyl donor in the assay buffer [50 mM Tris–HCl (pH 8.0), 50 mM NaCl, 0.1 mM EDTA, 1 mM DTT, 0.1 mM PMSF, 1% DMSO] for 1 h at 30 °C in the presence or absence of various compounds (1% DMSO final) titrated in a 2-fold serial dilution starting at 200 μM. Histone peptide acetylation was assessed by liquid scintillation counting using a Tri-Carb 2800TR Liquid Scintillation Analyzer (Perkin Elmer). Experiments were performed in biological triplicates. Signal reduction compared to control was plotted (as inhibition percentage) as a function of compound concentration. In cases in which an IC50 was calculated, the values were fitted by nonlinear regression (GraphPad Prism 8.0).

KDAC6 = target: T3, KDAC6 (Homo sapiens, UniProt Q9UBN7); assay: KDAC inhibition assay, KDAC6; settings: mean of three technical replicates
T3 sequence (Q9UBN7 1-1215): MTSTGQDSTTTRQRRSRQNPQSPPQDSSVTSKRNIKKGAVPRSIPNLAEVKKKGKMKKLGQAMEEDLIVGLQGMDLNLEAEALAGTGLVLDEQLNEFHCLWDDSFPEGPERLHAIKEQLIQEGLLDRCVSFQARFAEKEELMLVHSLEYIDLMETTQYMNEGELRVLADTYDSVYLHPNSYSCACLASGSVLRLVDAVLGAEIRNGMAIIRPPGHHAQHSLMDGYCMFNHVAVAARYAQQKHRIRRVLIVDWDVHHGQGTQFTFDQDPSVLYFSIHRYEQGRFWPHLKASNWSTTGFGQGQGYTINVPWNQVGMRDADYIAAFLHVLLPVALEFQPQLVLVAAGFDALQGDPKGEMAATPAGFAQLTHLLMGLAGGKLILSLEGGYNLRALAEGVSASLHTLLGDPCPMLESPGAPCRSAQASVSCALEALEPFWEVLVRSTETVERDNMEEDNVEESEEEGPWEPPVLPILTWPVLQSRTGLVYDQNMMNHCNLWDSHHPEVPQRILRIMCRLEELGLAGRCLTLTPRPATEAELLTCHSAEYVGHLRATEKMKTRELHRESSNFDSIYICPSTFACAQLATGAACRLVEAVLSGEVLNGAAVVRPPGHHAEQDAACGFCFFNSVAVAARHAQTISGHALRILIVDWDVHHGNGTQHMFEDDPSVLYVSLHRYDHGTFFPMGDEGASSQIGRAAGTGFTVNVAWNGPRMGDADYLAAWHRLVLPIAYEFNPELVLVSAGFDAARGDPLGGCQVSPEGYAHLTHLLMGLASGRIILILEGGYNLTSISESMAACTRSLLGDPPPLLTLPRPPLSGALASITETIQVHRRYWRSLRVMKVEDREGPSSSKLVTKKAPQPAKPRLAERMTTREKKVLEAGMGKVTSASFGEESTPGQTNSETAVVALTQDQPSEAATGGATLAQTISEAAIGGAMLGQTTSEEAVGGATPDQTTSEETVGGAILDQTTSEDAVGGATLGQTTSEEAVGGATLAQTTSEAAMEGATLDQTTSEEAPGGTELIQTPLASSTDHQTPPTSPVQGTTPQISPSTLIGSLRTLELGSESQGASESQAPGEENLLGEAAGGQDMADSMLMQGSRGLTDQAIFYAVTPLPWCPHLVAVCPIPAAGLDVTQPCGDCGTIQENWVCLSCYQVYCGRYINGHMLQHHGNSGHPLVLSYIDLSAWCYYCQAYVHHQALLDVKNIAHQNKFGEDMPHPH
Method: as §1

KDAC1, sequence (Q13547 whole entry, canonical isoform): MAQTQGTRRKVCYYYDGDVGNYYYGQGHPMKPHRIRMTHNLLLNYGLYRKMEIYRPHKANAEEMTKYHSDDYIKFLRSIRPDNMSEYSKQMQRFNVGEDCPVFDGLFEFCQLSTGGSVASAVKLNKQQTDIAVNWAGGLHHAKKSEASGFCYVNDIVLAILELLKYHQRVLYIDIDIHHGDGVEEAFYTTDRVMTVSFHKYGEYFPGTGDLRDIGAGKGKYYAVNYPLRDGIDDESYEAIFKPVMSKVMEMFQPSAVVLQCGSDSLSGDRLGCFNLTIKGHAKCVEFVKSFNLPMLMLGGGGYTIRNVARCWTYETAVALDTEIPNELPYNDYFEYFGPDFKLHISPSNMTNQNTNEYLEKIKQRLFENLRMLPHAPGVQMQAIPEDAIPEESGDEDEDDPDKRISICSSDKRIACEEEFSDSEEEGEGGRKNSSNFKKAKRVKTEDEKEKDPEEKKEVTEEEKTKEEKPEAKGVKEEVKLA

Row | inhibition at 50 µM (KDAC1) | inhibition at 100 µM (KDAC1) | inhibition at 50 µM (KDAC8) | inhibition at 100 µM (KDAC8) | inhibition at 200 µM (KAT5) | inhibition at 50 µM (KDAC6) | inhibition at 100 µM (KDAC6) | IC50 (KAT5; control compound, read-out: IC50 KAT5 (25 nM)) | SMILES
1 | 0.03% | 0.3% | 0.02% | 0.8% | 11.3 ± 0.3% | 0.4% | 1.3% |  | CC1=NN(c2ccc(C(=O)O)cc2)C(=O)/C1=C\c1ccc[nH]1 [Compound 19, (Z)-4-(4-((1H-Pyrrol-2-yl)methylene)-3-methyl-5-oxo-4,5-dihydro-1H-pyrazol-1-yl)benzoic Acid]
2 | 0.04% | 0.5% | 0.04% | 0.6% | 18.5 ± 1.3% | 0.6% | 2.1% |  | O=C(O)c1ccc(N2N=C(c3ccccc3)/C(=C/c3ccc[nH]3)C2=O)cc1 [Compound 34, (Z)-4-(4-((1H-Pyrrol-2-yl)methylene)-5-oxo-3-phenyl-4,5-dihydro-1H-pyrazol-1-yl)benzoic Acid]
3 | 0.7% | 1.3% | 77.6% | 89.1% |  | 87.2% | 98.1% | 18.3 µM | CC1=NN(c2ccc(C(=O)O)cc2)C(=O)/C1=C\c1ccc(-c2cc(C)c(C)cc2[N+](=O)[O-])o1 [VII (C646), reference compound]
